# Experimental data published in patent publication US6677336B2, “Substituted piperazine compounds” (CV Therapeutics, Inc., priority 2000, dated 2004).
# System: mitochondrial fatty acid oxidation (rat heart mitochondria)
# Test: Palmitoyl CoA oxidation in isolated rat heart mitochondria
# Format: biochemical
# Details: 100 μM compound; 15 min at 30° C; DMSO control
# Description: Compounds of this invention were evaluated in a rat heart mitochondiral assay as set forth below.
# Rat heart mitochondria were isolated by the method of Nedergard and Cannon (methods in Enzymol. 55, 3, 1979).
# Palmitoyl CoA oxidation—The Palmityl CoA oxidation was carried out in a total volume of 100 micro liters containing the following agents: 110 mM KCl, 33 mM Tris buffer at pH 8, 2 mM KPi, 2 mM MgCl2, 0.1 mM EDTA, 14.7 microM defatted BSA, 0.5 mM malic acid, 13 mM carnitine, 1 mM ADP, 52 micrograms of mitochondrial protein, and 16 microM 1-C14 palmitoyl CoA (Sp. Activity 60 mCi/mmole; 20 microCi/ml, using 5 microliters per assay). The compounds of this invention were added in a DMSO solution at the following concentrations: 100 microM, 30 microM, and 3 microM. In each assay, a DMSO control was used. After 15 min at 30° C., the enzymatic reaction was centrifuged (20,000 g for 1 min), and 70 microliters of the supernatant was added to an activated reverse phase silicic acid column (approximately 0.5 ml of silicic acid). The column was eluted with 2 ml of water, and 0.5 ml of the eluent was used for scintillation counting to determine the amount of C^14 trapped as C^14 bicarbonate ion.
row,Compound,Inhibition of mitochondrial fatty acid oxidation using palmitoyl CoA as substrate - % of Control
1,"Cc1cccc(C)c1NC(=O)CN1CCN(CC(O)CCOc2ccc(F)cc2)CC1 (stereo not shown) [Compound 21, N-(2,6-dimethylphenyl)-2-{4-[4-(4-fluorophenoxy)-2-hydroxybutyl]-piperazinyl}acetamide]",87%
2,"Cc1cccc(C)c1NC(=O)CN1CCN(C[C@H](O)COc2ccccc2F)[C@@H](C)C1 [Compound 25, 2-{(3S)-4-[(2S)-3-(2-fluorophenoxy)-2-hydroxypropyl]-3-methylpiperazinyl}-N-(2,6-dimethylphenyl)acetamide]",77%
3,"C[C@H]1CN(CC(=O)Nc2c(Cl)cccc2Cl)CCN1C[C@H](O)COc1ccccc1F [Compound 26, 2-{(3S)-4-[(2S)-3-(2-fluorophenoxy)-2-hydroxypropyl]-3-methylpiperazinyl}-N-(2,6-dichlorophenyl)acetamide]",0%
4,"COc1cc(NC(=O)CN2CCN(C[C@H](O)COc3ccccc3F)[C@@H](C)C2)cc(C(F)(F)F)c1 [Compound 28, 2-{(3S)-4-[(2S)-3-(2-fluorophenoxy)-2-hydroxypropyl]-3-methylpiperazinyl}-N-(5-methoxy-3-(trifluoromethyl)phenyl]acetamide]",59%
5,"C[C@H]1CN(CC(=O)Nc2ccc3c(c2)CCC3)CCN1C[C@H](O)COc1ccccc1F [Compound 29, 2-{(3S)-4-[(2S)-3-(2-fluorophenoxy)-2-hydroxypropyl]-3-methylpiperazinyl}-N-indan-5-ylacetamide]",51%
6,"C[C@H]1CN(CC(=O)Nc2cccc3ccccc23)CCN1C[C@H](O)COc1ccccc1F [Compound 30, 2-{(3S)-4-[(2S)-3-(2-fluorophenoxy)-2-hydroxypropyl]-3-methylpiperazinyl}-N-naphthylacetamide]",16%
7,"C[C@H]1CN(CC(=O)Nc2ccc(Cl)c3ccccc23)CCN1C[C@H](O)COc1ccccc1F [Compound 31, 2-{(3S)-4-[(2S)-3-(2-fluorophenoxy)-2-hydroxypropyl]-3-methylpiperazinyl}-N-(4-chloronaphthyl)acetamide]",87%
8,"C[C@H]1CN(CC(=O)Nc2ccccc2-n2cccc2)CCN1C[C@H](O)COc1ccccc1F [Compound 32, 2-{(3S)-4-[(2S)-3-(2-fluorophenoxy)-2-hydroxypropyl]-3-methylpiperazinyl}-N-(2-pyrrolylphenyl)acetamide]",74%
9,"C[C@H]1CN(CC(=O)Nc2ccccc2)CCN1C[C@H](O)COc1ccccc1F [Compound 33, 2-{(3S)-4-[(2S)-3-(2-fluorophenoxy)-2-hydroxypropyl]-3-methylpiperazinyl}-N-phenylacetamide]",63%
10,"C[C@H]1CN(CC(=O)Nc2ccccc2Cl)CCN1C[C@H](O)COc1ccccc1F [Compound 34, 2-{(3S)-4-[(2S)-3-(2-fluorophenoxy)-2-hydroxypropyl]-3-methylpiperazinyl}-N-(2-chlorophenyl)acetamide]",48%
11,"Cc1ccc(NC(=O)CN2CCN(C[C@H](O)COc3ccccc3F)[C@@H](C)C2)c(Cl)c1 [Compound 35, 2-{(3S)-4-[(2S)-3-(2-fluorophenoxy)-2-hydroxypropyl]-3-methylpiperazinyl}-N-(2-chloro-4-methylphenyl)acetamide]",45%
12,"C=C(C)c1ccccc1NC(=O)CN1CCN(C[C@H](O)COc2ccccc2F)[C@@H](C)C1 [Compound 36, 2-{(3S)-4-[(2S)-3-(2-fluorophenoxy)-2-hydroxypropyl]-3-methylpiperazinyl}-N-[2-(1-methylvinyl)phenyl]acetamide]",61%
13,"Cc1ccccc1NC(=O)CN1CCN(C[C@H](O)COc2ccccc2F)[C@@H](C)C1 [Compound 37, 2-{(3S)-4-[(2S)-3-(2-fluorophenoxy)-2-hydroxypropyl]-3-methylpiperazinyl}-N-(2-methylphenyl)acetamide]",55%
14,"Cc1cccc(C(C)C)c1NC(=O)CN1CCN(C[C@H](O)COc2ccccc2F)[C@@H](C)C1 [Compound 38, 2-{(3S)-4-[(2S)-3-(2-fluorophenoxy)-2-hydroxypropyl]-3-methylpiperazinyl}-N-[6-methyl-2-(methylethyl)phenyl]acetamide]",78%
15,"CSc1cccc(NC(=O)CN2CCN(C[C@H](O)COc3ccccc3F)[C@@H](C)C2)c1 [Compound 39, 2-{(3S)-4-[(2S)-3-(2-fluorophenoxy)-2-hydroxypropyl]-3-methylpiperazinyl}-N-(3-methylthiophenyl)acetamide]",60%
16,"COc1cc(Cl)c(C)cc1NC(=O)CN1CCN(C[C@H](O)COc2ccccc2F)[C@@H](C)C1 [Compound 40, 2-{(3S)-4-[(2S)-3-(2-fluorophenoxy)-2-hydroxypropyl]-3-methylpiperazinyl}-N-(4-chloro-2-methoxy-5-methylphenyl)acetamide]",23%
17,"C[C@H]1CN(CC(=O)Nc2ccc(N(C)C)cc2)CCN1C[C@H](O)COc1ccccc1F [Compound 41, 2-{(3S)-4-[(2S)-3-(2-fluorophenoxy)-2-hydroxypropyl]-3-methylpiperazinyl}-N-[4-(dimethylamino)phenyl]acetamide]",64%
18,"COc1ccc(NC(=O)CN2CCN(C[C@H](O)COc3ccccc3F)[C@@H](C)C2)c(OC)c1 [Compound 42, 2-{(3S)-4-[(2S)-3-(2-fluorophenoxy)-2-hydroxypropyl]-3-methylpiperazinyl}-N-(2,4-dimethoxyphenyl)acetamide]",68%
19,"C[C@H]1CN(CC(=O)Nc2ccc(Cl)c(Cl)c2)CCN1C[C@H](O)COc1ccccc1F [Compound 43, 2-{(3S)-4-[(2S)-3-(2-fluorophenoxy)-2-hydroxypropyl]-3-methylpiperazinyl}-N-(3,4-dichlorophenyl)acetamide]",19%
20,"C[C@H]1CN(CC(=O)Nc2ccc(Cl)cc2)CCN1C[C@H](O)COc1ccccc1F [Compound 44, 2-{(3S)-4-[(2S)-3-(2-fluorophenoxy)-2-hydroxypropyl]-3-methylpiperazinyl}-N-(4-chlorophenyl)acetamide]",81%
21,"C[C@H]1CN(CC(=O)Nc2cccc(Cl)c2)CCN1C[C@H](O)COc1ccccc1F [Compound 45, 2-{(3S)-4-[(2S)-3-(2-fluorophenoxy)-2-hydroxypropyl]-3-methylpiperazinyl}-N-(3-chlorophenyl)acetamide]",58%
22,"C[C@H]1CN(CC(=O)Nc2cc(Cl)cc(Cl)c2)CCN1C[C@H](O)COc1ccccc1F [Compound 46, 2-{(3S)-4-[(2S)-3-(2-fluorophenoxy)-2-hydroxypropyl]-3-methylpiperazinyl}-N-(3,5-dichlorophenyl)acetamide]",7%
23,"COc1ccc(NC(=O)CN2CCN(C[C@H](O)COc3ccccc3F)[C@@H](C)C2)cc1 [Compound 47, 2-{(3S)-4-[(2S)-3-(2-fluorophenoxy)-2-hydroxypropyl]-3-methylpiperazinyl}-N-(4-methoxyphenyl)acetamide]",80%
24,"Cc1ccc(NC(=O)CN2CCN(C[C@H](O)COc3ccccc3F)[C@@H](C)C2)cc1 [Compound 48, 2-{(3S)-4-[(2S)-3-(2-fluorophenoxy)-2-hydroxypropyl]-3-methylpiperazinyl}-N-(4-methylphenyl)acetamide]",61%
25,"Cc1cccc(NC(=O)CN2CCN(C[C@H](O)COc3ccccc3F)[C@@H](C)C2)c1 [Compound 49, 2-{(3S)-4-[(2S)-3-(2-fluorophenoxy)-2-hydroxypropyl]-3-methylpiperazinyl}-N-(3-methylphenyl)acetamide]",66%
26,"C[C@H]1CN(CC(=O)Nc2ccc(F)cc2)CCN1C[C@H](O)COc1ccccc1F [Compound 50, 2-{(3S)-4-[(2S)-3-(2-fluorophenoxy)-2-hydroxypropyl]-3-methylpiperazinyl}-N-(4-fluorophenyl)acetamide]",80%
27,"C[C@H]1CN(CC(=O)Nc2ccc(C#N)cc2)CCN1C[C@H](O)COc1ccccc1F [Compound 51, 2-{(3S)-4-[(2S)-3-(2-fluorophenoxy)-2-hydroxypropyl]-3-methylpiperazinyl}-N-(4-cyanophenyl)acetamide]",99%
28,"COc1ccccc1NC(=O)CN1CCN(C[C@H](O)COc2ccccc2F)[C@@H](C)C1 [Compound 53, 2-{(3S)-4-[(2S)-3-(2-fluorophenoxy)-2-hydroxypropyl]-3-methylpiperazinyl}-N-(2-methoxyphenyl)acetamide]",81%
